{"source": "paper PMC8027839", "about": "(Scientific Reports, 2021)", "key": {"[1]": {"molecular_target": "T1, SapM (Mycobacterium tuberculosis, UniProt O53361)", "T1 construct": "made in house; host or cells: Escherichia coli C41 (DE3)", "T1 sequence (O53361 44-299)": "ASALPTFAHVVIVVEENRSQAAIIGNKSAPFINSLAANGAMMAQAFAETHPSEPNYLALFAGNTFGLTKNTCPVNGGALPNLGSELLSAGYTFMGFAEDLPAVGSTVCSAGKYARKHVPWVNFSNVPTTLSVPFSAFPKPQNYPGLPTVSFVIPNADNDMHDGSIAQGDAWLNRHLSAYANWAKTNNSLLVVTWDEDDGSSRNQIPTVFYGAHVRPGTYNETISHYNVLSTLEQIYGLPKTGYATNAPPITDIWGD", "test": "biochemical", "assay_type": "biochemical"}, "[2]": {"molecular_target": "MptpA (Mycobacterium tuberculosis, UniProt P9WIA1)", "sequence (P9WIA1 whole entry)": "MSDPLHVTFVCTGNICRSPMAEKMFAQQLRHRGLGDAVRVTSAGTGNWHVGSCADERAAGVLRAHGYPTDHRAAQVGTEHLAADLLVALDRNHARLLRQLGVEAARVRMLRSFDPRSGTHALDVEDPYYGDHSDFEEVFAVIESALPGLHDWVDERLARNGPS", "test": "biochemical", "conditions": "pNPP assay, pH 6"}, "[3]": {"molecular_target": "MptpB (Mycobacterium tuberculosis, UniProt I6WXK4)", "sequence (I6WXK4 whole entry, looked up)": "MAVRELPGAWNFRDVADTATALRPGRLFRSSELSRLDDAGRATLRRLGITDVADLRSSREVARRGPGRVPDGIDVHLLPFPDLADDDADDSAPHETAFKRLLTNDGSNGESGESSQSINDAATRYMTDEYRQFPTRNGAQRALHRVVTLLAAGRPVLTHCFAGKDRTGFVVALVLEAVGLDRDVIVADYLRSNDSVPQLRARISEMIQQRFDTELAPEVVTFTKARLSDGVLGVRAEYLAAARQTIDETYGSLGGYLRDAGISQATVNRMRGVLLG", "test": "biochemical", "conditions": "pNPP assay, pH 6"}, "[4]": {"molecular_target": "T1, SapM", "test": "Type of inhibition of SapM, Lineweaver-Burk plots", "assay_type": "biochemical", "text": "To determine the type of inhibition different inhibitor concentrations were selected to yield around 30% and 75% inhibition for each concentration of pNPP. This ensures sufficient signal to obtain accurate data while allowing a significant inhibition effect. Velocity (V) was plotted as a function of pNPP concentration and fit in a Lineweaver–Burk plot (double-reciprocal) using GraphPad Prism 8.41. All assays were done in 96-well microplates and performed in triplicate in at least two independent experiments."}, "[5]": {"test_system": "Mtb H37Rv strain", "test": "Mycobacterium tuberculosis infection assay in THP-1 macrophages", "assay_type": "cell-based", "conditions": "resting THP-1 macrophages; 1 µM and 40 µM; 24 h and 72 h post infection"}, "[6]": {"test_system": "Francisella tularensis live vaccine strain (LVS)", "assay_type": "cell-based", "conditions": "MH-S macrophages; 40 μM; 24 h post infection"}, "[7]": {"test_system": "F. tularensis", "assay_type": "cell-based, Francisella tularensis", "conditions": "40 µM; 24 h"}, "[8]": {"molecular_target": "AcpA (Francisella tularensis subsp. novicida, UniProt A0Q436)", "sequence (A0Q436 21-514 limits assumed)": "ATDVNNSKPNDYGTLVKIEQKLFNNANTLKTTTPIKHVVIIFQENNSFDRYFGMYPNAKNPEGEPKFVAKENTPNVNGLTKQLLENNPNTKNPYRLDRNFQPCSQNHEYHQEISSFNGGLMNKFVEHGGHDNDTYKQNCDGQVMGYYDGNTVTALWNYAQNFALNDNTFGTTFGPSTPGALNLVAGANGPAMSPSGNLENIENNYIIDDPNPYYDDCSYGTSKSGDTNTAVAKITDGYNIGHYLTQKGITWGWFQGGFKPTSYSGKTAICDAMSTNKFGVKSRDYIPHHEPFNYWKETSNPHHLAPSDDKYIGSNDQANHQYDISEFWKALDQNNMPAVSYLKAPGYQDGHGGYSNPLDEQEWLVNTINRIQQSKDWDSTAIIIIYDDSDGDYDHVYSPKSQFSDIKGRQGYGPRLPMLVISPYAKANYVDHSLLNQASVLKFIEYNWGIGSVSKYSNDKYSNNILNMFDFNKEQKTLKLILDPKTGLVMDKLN", "test": "biochemical", "conditions": "1 mM; read-out: inhibition of enzymatic activity of AcpA"}, "[9]": {"molecular_target": "T1, SapM", "test": "Microscale thermophoresis of SapM binding", "protocol": "Microscale thermophoresis (MST) was used to study the direct binding interaction of SapM with three compounds 1, 2 and 13. SapM was labelled with NTA-647nm dye which attaches to the 6-histidine tag. 100 nM NTA-647 was incubated with 200 nM SapM for 1-hour at 4 °C and then centrifuged at 20,000 rcf for 20 minutes at 4 °C in 20 mM HEPES, 200 mM NaCl pH 7.0. 10 mM compound was diluted to 500 μM in the same buffer. Binding checks were carried out with labelled SapM (5 nM) with and without 250 nM compound with LED power of 20% and a medium MST power in a Monolith Pico instrument and using standard capillaries. Binding analysis was performed with a doubling serial dilution from 250 nM with 16 dilutions and a constant concentration of 5 nM labelled SapM."}, "[10]": {"test_system": "M. bovis BCG wild-type", "assay_type": "cell-based", "conditions": "Raw 264.7 macrophages; 40 µM; 72 h post-infection; vs DMSO"}, "[11]": {"test_system": "M. bovis BCG ΔsapM", "assay_type": "cell-based", "conditions": "40 µM"}, "[12]": {"test": "Compound precipitation in enzyme assays", "assay_type": "physicochemical", "conditions": "AcpA Malachite Green assay"}, "[13]": {"test": "MTT cytotoxicity assay, MH-S", "conditions": "mouse, MH-S cells (SV40-transformed alveolar macrophage cell line)"}}, "note": "Entries after “also recorded” stand apart in the source; their conditions may differ."}
{"smiles": "N#CC(C#N)=C(N)/C(C#N)=C/c1cc(O)c(O)c(O)c1", "note": "[Compound 1, Tyrphostin 51]", "values": [{"measurement": "remaining activity at 100 µM", "setting": "[1]; 0.5 h, compounds at 100 µM, relative to pNPP DMSO control, read-out: %SA (percentage specific activity of SapM)", "result": 0, "unit": "%"}, {"measurement": "effect on SapM enzyme activity", "setting": "[1]; compounds at 100 µM", "result": "completely abolished the enzymatic activity; also recorded: abolished enzyme activity completely"}, {"measurement": "IC50", "setting": "[1]; pNPP assay, dose-response", "result": "6.3 ± 1", "unit": "µM"}, {"measurement": "IC50", "setting": "[2]", "result": "19.8 ± 1", "unit": "µM"}, {"measurement": "IC50", "setting": "[3]", "result": "> 100", "unit": "µM"}, {"measurement": "mechanism of inhibition of SapM", "setting": "[4]", "result": "uncompetitive inhibitors"}, {"measurement": "Mtb intracellular burden vs DMSO control", "setting": "[5]", "result": "significant (****p < 0.0001) reduction"}, {"measurement": "reduction of F. tularensis intracellular burden", "setting": "[6]", "result": 55, "unit": "%"}, {"measurement": "acellular growth of F. tularensis", "setting": "[7]", "result": "does not affect acellular growth"}, {"measurement": "inhibition at 1000 µM", "setting": "[8]", "result": "~30", "unit": "%"}, {"measurement": "binding to SapM by MST", "setting": "[9]", "result": "confirmed"}, {"measurement": "EC50", "setting": "[9]; Bivalent fit EC50 (1), MST titration, tighter binding mode", "result": 0.52, "unit": "µM"}, {"measurement": "intracellular burden of wild-type M. bovis BCG", "setting": "[10]", "result": "reduced the intracellular burden"}, {"measurement": "intracellular burden of ΔsapM", "setting": "[11]", "result": "did not further reduce the intracellular burden"}, {"measurement": "concentration at which compound precipitates", "setting": "[12]", "result": "≥ 2000", "unit": "µM"}, {"measurement": "viability at 24 h", "setting": "[13]", "result": "> 70", "unit": "%"}]}
